{
  "source": "patent US10272182B2",
  "about": "“Copolymer membrane for high-dose chemotherapy delivery during transarterial chemoembolization” (THE REGENTS OF THE UNIVERSITY OF CALIFORNIA, priority 2014, dated 2019)",
  "assay": "Hepatic artery IAC infusion of dox in swine without CF device",
  "format": "in vivo",
  "settings": "50 mg dox (2 mg/mL) into the liver via hepatic artery over 10 minutes",
  "description": "In vivo pilot experiments on swine were performed to establish an animal model and proof-of-concept for toxicity reduction. Farm swine (n=3, 30 kg) received humane care in compliance with the UCSF IACUC. Interventional procedures included anesthesia (Isoflurane), X-ray fluoroscopy, percutaneous transarterial catheterization of the hepatic artery, and percutaneous transveous catheterization of the vena cava. Heparin was […] in order to prevent thrombus formation. Heart rate, electrocardiogram, and O2-saturation were continuously monitored during the interventions. Animals were euthanized immediately after the procedures.\nIn the second animal, a CF device was not deployed, but rather a hepatic artery IAC infusion of dox was performed with subsequent sampling of blood at various times and positions throughout the venous system. This was performed in order to validate a hepatic dox IAC pharmacokinetic experimental model, measuring venous dox concentrations over time via a developed liquid chromatography-mass spectroscopy assay (Pacific Biolabs, Hercules, Calif.). In this animal, a microcatheter was advanced into the hepatic artery via standard access from a right femoral artery approach using fluoroscopy and contrast as needed. Via percutaneous UV access, central catheters were positioned with tips in the suprahepatic IVC and right hepatic vein. […]",
  "data": [
    {"compound": "COc1cccc2c1C(=O)c1c(O)c3c(c(O)c1C2=O)C[C@@](O)(C(=O)CO)C[C@@H]3O[C@H]1C[C@H](N)[C@H](O)[C@H](C)O1", "note": "[dox, doxorubicin]", "values": [
      {"measurement": "hemodynamic changes during the procedure", "value": "no hemodynamic changes"}
    ]}
  ]
}
